Assay results: US20240051968A1, “METHODS FOR TREATING SPINOCEREBELLAR ATAXIA TYPE 3” (PTC Therapeutics, Inc., priority 2021, published 2024)

Key:
[1] = test system: Total ATXN3 (tATXN3) protein; assay: Endogenous Total ATXN3 (tATXN3) Protein Assay (MSD immunoassay of cell lysates); assay type: cell-based; conditions: cells incubated with compound 48 h; 7-point concentration curve; MSD detection in cell lysate
Experimental: Endogenous Total ATXN3 (tATXN3) Protein Assay
Meso Scale Discovery (MSD) 96-well or 384-well plates were coated overnight at 4° C. with Ataxin 3 mouse monoclonal antibody (Invitrogen, MA3-082) at a concentration of 0.5 μg/mL in PBS (30 μL per well). Plates were then washed three times with 300 μL wash buffer (0.05% TWEEN®-20, polyethylene glycol sorbitan monolaurate, in PBS) and blocked (Meso Scale Diagnostics, R93BA-1; 5% BSA in PBS) for 2 h at room temperature with rotational shaking and then washed three times with wash buffer.
(§1) Test compounds were serially diluted 3.16-fold in 100% DMSO to generate a 7-point concentration curve. Aliquots of 0.5 μL of diluted compounds were transferred to a 96-well flat bottom plate by a liquid handler. An aliquot of 0.5 μL DMSO was also transferred to separate wells and used as controls. Duplicate samples were set up for each compound concentration and for the DMSO control.
Cells were thawed and incubated in cell culture media (DMEM, 10% FBS, and 1% antibiotic cocktail) for 72 h. Cells were trypsinized, counted, and re-suspended to a concentration of 100,000 cells/mL in cell culture media. A 100 μL aliquot of the cell suspensions were plated at 10,000 cells per well in the compound containing 96 well microtiter plate and incubated for in a cell culture incubator (37° C., 5% CO2, 100% relative humidity). After 48 h, the medium was removed and 50-100 μL of lysis buffer (Meso Scale Diagnostics, R60TX-2) containing 1× halt protease inhibitor cocktail of (Thermo Scientific, Halt™ Protease Inhibitor Cocktail, 78430) per well was added to cells to provide a “cell lysate”. The plate was placed on a shaker at 4° C. for 30 minutes, then stored at −80° C.
Cell lysate samples (25 μL) were transferred to the antibody-coated MSD plate and incubated overnight at 4° C. After removal of the lysates, the plate was washed three times with wash buffer, and 25 μL of Ataxin 3 recombinant rabbit monoclonal antibody (Invitrogen, #702788) secondary antibody (diluted to 0.25 μg/mL in 0.05% TWEEN®-20 in blocking buffer) was added to each well and incubated with shaking for 1-2 h at room temperature. Following incubation with the secondary antibody, the wells were rinsed with wash buffer and then […] Anti Rabbit Antibody Goat SULFO-TAG Labeled (Meso Scale Diagnostics, R32AB-1) detecting antibody (diluted to 0.25 μg/mL in 0.05% TWEEN®-20 in blocking buffer) was added to each well and incubated with shaking for 1 h at room temperature. After rinsing three times with wash buffer, 150 μL of Read Buffer T with surfactant (tris-based buffer containing tripropylamine, Meso Scale Diagnostics, R92TC-1) were added to each empty well, and the plate was imaged on a SI 6000 imager (MSD) according to manufacturers' instructions provided for 96- or 384-well plates.

[2] = test system: ATXN3 pre-mRNA; assay: RT-qPCR Assay to Quantify Exon 4 Skipping in ATXN3 pre-mRNA in Cells; assay type: cell-based; conditions: cells incubated with compound 24 h, 7-point concentration curve, GAPDH control
Experimental: as §1, with “RT-qPCR Assay to Quantify Exon 4 Skipping in ATXN3 pre-mRNA in Cells Test” for “Test”
Cells were thawed and incubated in cell culture media (DMEM, 10% FBS, and 1% antibiotic cocktail) for 72 h. Cells were trypsinized, counted, and re-suspended to a concentration of 100,000 cells/mL in cell culture media. A 100 μL aliquot of the cell suspensions were plated at 10,000 cells per well in the compound containing 96 well microtiter plate and incubated for in a cell culture incubator (37° C., 5% CO2, 100% relative humidity).
After 24 h, media was aspirated from the cells and 50 μL of the RCL2 lysis buffer (10 mM Tris-HCL pH 7.4, 150 mM NaCl, 0.33% IGEPAL® CA-630) was added to each well and incubated at room temperature for 1 min. Chilled nuclease free water (50 μL per well) was added and the plates were immediately transferred on ice. After 1 min on ice, plates were frozen at −80° C. overnight.
Preparation of RT-qPCR Reaction Mixture:
An aliquot of 2 μL/well of the cell lysates was transferred using the liquid handler to the Armadillo 384-Well PCR plate containing 8 μL/well of the RT-qPCR reaction mixture that was prepared as detailed above. The plates were then sealed with MicroAmp™ Optical Adhesive Film followed by spinning down for 1 min and placed in the CFX384 thermocycler (BioRad).
The RT-qPCR was carried out at the following temperatures for the indicated time: • Step 1: 48° C. (30 min) • Step 2: 95° C. (10 min) • Step 3: 95° C. (15 sec) • Step 4: 60° C. (1 min); then, repeated Steps 3 and 4 for a total of 40 cycles.
The percent exon 4 skipping was calculated for each dose of compound treatment using Equations 1 and 2.
Data were fit to a dose response curve and the IC50 was interpolated using XLfit® statistical and curve fitting package.
An IC50 value between >2.0 μM and ≤3.0 μM is indicated by one star (*). […] IC50 value between >0.5 μM and ≤1.0 μM is indicated by four stars (****). An IC50 value ≤0.5 μM is indicated by five stars (*****).

| SMILES | IC50 (average), total ATXN3 protein [1] | IC50, exon 4 skipping in ATXN3 pre-mRNA [2] | IC50 [2] [nM] | IC50 [1] [nM] |
| --- | --- | --- | --- | --- |
| C[C@H](N)Cc1cc2nc(Cl)cc(NCc3ccco3)c2s1 [Cpd 16, 2-[(2S)-2-aminopropyl]-5-chloro-N-[(furan-2-yl)methyl]thieno[3,2-b]pyridin-7-amine] | – | – | ≤ 500 | ≤ 500 |
| N[C@@H](CO)Cc1cc2nc(Cl)cc(NCc3ccco3)c2s1 [Cpd 17, (2R)-2-amino-3-(5-chloro-7-{[(furan-2-yl)methyl]amino}thieno[3,2-b]pyridin-2-yl)propan-1-ol] | – | – | ≤ 500 | ≤ 500 |
| Cc1c(C[C@H](C)N)sc2c(NCc3ccco3)cc(Cl)nc12 [Cpd 18, 2-[(2S)-2-aminopropyl]-5-chloro-N-[(furan-2-yl)methyl]-3-methylthieno[3,2-b]pyridin-7-amine] | – | – | ≤ 500 | ≤ 500 |
| Cc1c(C[C@H](C)N)sc2c(NCc3ccccc3F)cc(Cl)nc12 [Cpd 29, 2-[(2S)-2-aminopropyl]-5-chloro-N-[(2-fluorophenyl)methyl]-3-methylthieno[3,2-b]pyridin-7-amine] | – | – | ≤ 500 | ≤ 500 |
| Cc1c(C[C@H](C)N)sc2c(NCc3ccco3)ccnc12 [Cpd 34, 2-[(2S)-2-aminopropyl]-N-[(furan-2-yl)methyl]-3-methylthieno[3,2-b]pyridin-7-amine] | – | – | ≤ 500 | ≤ 500 |
| Cc1c(C[C@H](C)N)sc2c(NCc3ccncc3F)cc(Cl)nc12 [Cpd 35, 2-[(2S)-2-aminopropyl]-5-chloro-N-[(3-fluoropyridin-4-yl)methyl]-3-methylthieno[3,2-b]pyridin-7-amine] | – | – | ≤ 500 | ≤ 500 |
| C[C@H](N)Cc1sc2c(NCc3ccco3)cc(Cl)nc2c1Cl [Cpd 36, 2-[(2S)-2-aminopropyl]-3,5-dichloro-N-[(furan-2-yl)methyl]thieno[3,2-b]pyridin-7-amine] | – | – | ≤ 500 | ≤ 500 |
| N[C@@H](CO)Cc1sc2c(NCc3ccco3)cc(Cl)nc2c1Cl [Cpd 39, (2R)-2-amino-3-(3,5-dichloro-7-{[(furan-2-yl)methyl]amino}thieno[3,2-b]pyridin-2-yl)propan-1-ol] | – | – | ≤ 500 | ≤ 500 |
| COC[C@H](N)Cc1sc2c(NCc3ccco3)cc(Cl)nc2c1Cl [Cpd 40, 2-[(2R)-2-amino-3-methoxypropyl]-3,5-dichloro-N-[(furan-2-yl)methyl]thieno[3,2-b]pyridin-7-amine] | – | – | ≤ 500 | ≤ 500 |
| N[C@@H](CO)Cc1sc2c(NCc3ccco3)cc(Cl)nc2c1Br [Cpd 41, (2R)-2-amino-3-(3-bromo-5-chloro-7-{[(furan-2-yl)methyl]amino}thieno[3,2-b]pyridin-2-yl)propan-1-ol] | – | – | ≤ 500 | ≤ 500 |
| CN[C@@H](C)Cc1sc2c(NCc3ccco3)cc(Cl)nc2c1C [Cpd 42, 5-chloro-N-[(furan-2-yl)methyl]-3-methyl-2-[(2S)-2-(methylamino)propyl]thieno[3,2-b]pyridin-7-amine] | – | – | 500 to 1000 | ≤ 500 |
| COC[C@H](N)Cc1sc2c(NCc3ccco3)cc(Cl)nc2c1Br [Cpd 44, 2-[(2R)-2-amino-3-methoxypropyl]-3-bromo-5-chloro-N-[(furan-2-yl)methyl]thieno[3,2-b]pyridin-7-amine] | – | – | ≤ 500 | ≤ 500 |
| COC[C@H](N)Cc1sc2c(NCc3ccco3)cc(Cl)nc2c1C [Cpd 45, 2-[(2R)-2-amino-3-methoxypropyl]-5-chloro-N-[(furan-2-yl)methyl]-3-methylthieno[3,2-b]pyridin-7-amine] | – | – | ≤ 500 | ≤ 500 |
| C[C@H](N)Cc1sc2c(NCc3ccco3)cc(Cl)nc2c1C1CC1 [Cpd 51, 2-[(2S)-2-aminopropyl]-5-chloro-3-cyclopropyl-N-[(furan-2-yl)methyl]thieno[3,2-b]pyridin-7-amine] | – | – | ≤ 500 | ≤ 500 |
| C[C@H](N)Cc1sc2c(NCc3cccs3)cc(Cl)nc2c1Cl [Cpd 52, 2-[(2S)-2-aminopropyl]-3,5-dichloro-N-[(thiophen-2-yl)methyl]thieno[3,2-b]pyridin-7-amine] | – | – | ≤ 500 | ≤ 500 |
| C[C@H](N)Cc1sc2c(NCc3cccs3)cc(Cl)nc2c1Br [Cpd 53, 2-[(2S)-2-aminopropyl]-3-bromo-5-chloro-N-[(thiophen-2-yl)methyl]thieno[3,2-b]pyridin-7-amine] | – | – | ≤ 500 | ≤ 500 |
| Cc1c(C[C@H](C)N)sc2c(NCc3cccs3)cc(C#N)nc12 [Cpd 54, 2-[(2S)-2-aminopropyl]-3-methyl-7-{[(thiophen-2-yl)methyl]amino}thieno[3,2-b]pyridine-5-carbonitrile] | – | – | ≤ 500 | ≤ 500 |
| Cc1c(C[C@H](C)N)sc2c(NCc3nccs3)cc(Cl)nc12 [Cpd 57, 2-[(2S)-2-aminopropyl]-5-chloro-3-methyl-N-[(1,3-thiazol-2-yl)methyl]thieno[3,2-b]pyridin-7-amine] | – | – | ≤ 500 | ≤ 500 |
| Cc1c(C[C@@H](N)CO)sc2c(NCc3ccco3)cc(Cl)nc12 [Cpd 58, (2R)-2-amino-3-(5-chloro-7-{[(furan-2-yl)methyl]amino}-3-methylthieno[3,2-b]pyridin-2-yl)propan-1-ol] | – | – | ≤ 500 | ≤ 500 |
| Cc1c(C[C@@H](N)CC(C)C)sc2c(NCc3cccs3)cc(Cl)nc12 [Cpd 61, 2-[(2S)-2-amino-4-methylpentyl]-5-chloro-3-methyl-N-[(thiophen-2-yl)methyl]thieno[3,2-b]pyridin-7-amine] | – | – | ≤ 500 | ≤ 500 |
| N[C@H](CF)Cc1sc2c(NCc3cccs3)cc(Cl)nc2c1Br [Cpd 63, 2-[(2S)-2-amino-3-fluoropropyl]-3-bromo-5-chloro-N-[(thiophen-2-yl)methyl]thieno[3,2-b]pyridin-7-amine] | – | – | 1500 to 2000 | > 2000 |

Now from value to compound, other results behind:

| IC50 (average), total ATXN3 protein [1] | IC50, exon 4 skipping in ATXN3 pre-mRNA [2] | SMILES | IC50 [2] [nM] | IC50 [1] [nM] |
| --- | --- | --- | --- | --- |
| inactive | inactive | Clc1cc(NCc2ccco2)c2scc(Cl)c2n1 [Cpd 6, 3,5-dichloro-N-[(furan-2-yl)methyl]thieno[3,2-b]pyridin-7-amine] | – | – |
| inactive | – | Clc1cc(NCc2ccco2)c2scc(Br)c2n1 [Cpd 7, 3-bromo-5-chloro-N-[(furan-2-yl)methyl]thieno[3,2-b]pyridin-7-amine] | 1000 to 1500 | – |
| inactive | inactive | Cc1c(C[C@H](N)CF)sc2c(NCc3ccco3)cc(Cl)nc12 [Cpd 59, 2-[(2S)-2-amino-3-fluoropropyl]-5-chloro-N-[(furan-2-yl)methyl]-3-methylthieno[3,2-b]pyridin-7-amine] | – | – |
